# Key:
# Test in all cases: radiometric […]-ATP kinase assay, ATF2 substrate, ATP at apparent Km
# Format in all cases: biochemical
# [1] = molecular target: T1, JNK2 (Homo sapiens, UniProt P45984)
# T1 construct: gene MAPK9; untagged JNK2 (amino acids 1-424)
# [2] = molecular target: T2, JNK3 (Homo sapiens, UniProt P53779)
# T2 construct: gene MAPK10; GST-tagged JNK3 (amino acids 1-426)
# [3] = molecular target: T3, JNK1 (Homo sapiens, UniProt P45983)
# T3 construct: gene MAPK8; untagged JNK1 (amino acids 1-384)
# T3 sequence (P45983 1-384 isoform P45983-2): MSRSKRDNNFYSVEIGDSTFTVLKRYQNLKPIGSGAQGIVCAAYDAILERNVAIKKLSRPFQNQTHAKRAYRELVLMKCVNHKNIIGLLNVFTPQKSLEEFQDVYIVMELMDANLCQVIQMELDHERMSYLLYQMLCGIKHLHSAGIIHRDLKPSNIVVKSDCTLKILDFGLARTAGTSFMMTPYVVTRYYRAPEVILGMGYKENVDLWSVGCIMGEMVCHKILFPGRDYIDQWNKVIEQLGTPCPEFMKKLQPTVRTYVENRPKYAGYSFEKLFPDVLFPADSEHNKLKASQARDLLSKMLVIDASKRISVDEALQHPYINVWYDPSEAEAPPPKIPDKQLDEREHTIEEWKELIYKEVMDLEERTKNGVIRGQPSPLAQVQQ
# T2 sequence (P53779 1-426): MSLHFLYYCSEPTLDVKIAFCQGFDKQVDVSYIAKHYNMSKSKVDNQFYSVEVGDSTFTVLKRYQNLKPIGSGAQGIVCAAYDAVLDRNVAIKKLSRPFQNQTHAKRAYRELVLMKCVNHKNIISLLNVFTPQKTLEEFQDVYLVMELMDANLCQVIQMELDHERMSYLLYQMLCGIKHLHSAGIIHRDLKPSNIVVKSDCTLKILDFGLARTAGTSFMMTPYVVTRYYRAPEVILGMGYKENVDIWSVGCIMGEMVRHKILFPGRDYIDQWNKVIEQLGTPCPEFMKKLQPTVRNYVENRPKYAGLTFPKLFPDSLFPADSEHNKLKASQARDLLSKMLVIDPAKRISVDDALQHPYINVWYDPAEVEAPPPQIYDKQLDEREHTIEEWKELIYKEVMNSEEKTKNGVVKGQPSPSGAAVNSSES
# T1 sequence (P45984 whole entry, the tested form may be a part): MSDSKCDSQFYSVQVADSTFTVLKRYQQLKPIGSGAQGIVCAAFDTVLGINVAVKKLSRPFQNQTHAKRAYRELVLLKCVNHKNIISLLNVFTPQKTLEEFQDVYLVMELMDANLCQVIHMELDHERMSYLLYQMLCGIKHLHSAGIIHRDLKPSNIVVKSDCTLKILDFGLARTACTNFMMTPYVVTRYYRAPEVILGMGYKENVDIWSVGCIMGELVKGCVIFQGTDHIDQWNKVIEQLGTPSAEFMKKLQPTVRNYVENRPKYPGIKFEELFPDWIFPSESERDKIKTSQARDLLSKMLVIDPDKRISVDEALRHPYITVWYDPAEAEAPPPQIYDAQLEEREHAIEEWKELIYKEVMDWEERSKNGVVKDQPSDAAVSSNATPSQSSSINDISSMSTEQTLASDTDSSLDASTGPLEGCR
compound,measurement,setting,value
"Nc1nc2nc[nH]c2c(=O)[nH]1 [G, guanine]",IC50,[1],180 µM
same,IC50,[2],330 µM
same,IC50,[3],200 µM
